# From US10919949B2, “Acylated insulin analogues and uses thereof” (Novo Nordisk A/S, priority 2017, dated 2021)
# Columns and labels:
# isolated rat adipocytes = test: Lipogenesis in rat free fat cell assay; assay type: cell-based
# Protocol: The metabolic potency of the insulin derivatives of the invention was determined by lipogenesis using isolated rat adipocytes.
# In brief, epididymal fat pads were removed from killed Sprague-Dawley rats and placed in degradation buffer with collagenase (Worthington) in order to degrade the fat pads into a single-cell suspension. […] The incubation was stopped by addition of MicroScint-E (PerkinElmer), and the plates counted in a TopCount NXT (PerkinElmer).
# AKT and ERK = test: Insulin receptor signalling via AKT and ERK phosphorylation in CHO-hIR cells (Western blot / Surefire); assay type: cell-based, Chinese hamster; details: 10 min stimulation, Table 1A
# Protocol: Insulin receptor (IR) signalling of the analogues of this invention via AKT and ERK pathways was assessed either by traditional Western blotting technique or by the use of Surefire, alphascreen technique.
# In brief, CHO-hIR cells were stimulated for 10 min with increasing concentrations of the insulin analogue, washed in ice-cold PBS, snap-frozen and lysed in lysis buffer (Biosource). Equal amounts of proteins were loaded on gels and blotted to nitrocellulose membranes. Phosphorylated AKT and ERK were visualised with Phospho-AKT (Ser473) (Cell signalling #9271) and pMAPK 44/42 ERK1/2 rabbit (Cell Signalling #4376) antibodies, respectively. Band intensities were evaluated using a LAS3000 (Fuji).
# The responsiveness value (Span) for each analogue was calculated using non-linear regression in GraphPad Prism 7 from GraphPad Software Inc and expresses as percent of the responsiveness of insulin (% max AKT or % max ERK)
# [1] = 0.1% HSA as printed, Table 1A second lipogenesis column
# [2] = 0.1% HSA, Table 1A first lipogenesis column
Substance,Lipogenesis 0.1% HSA EC50 (% of human insulin) (isolated rat adipocytes; [1]),Lipogenesis 0.1% HSA EC50 (% of human insulin) (isolated rat adipocytes; [2]),% maxERK/% maxAKT (AKT and ERK)
"N{Epsilon-B28}-[(4R)-4-[(3R,10S,13R,17R)-3-hydroxy-10,13-dimethyl-2,3,4,5,6,7,8,9,11,12,14,15,16,17-tetradecahydro-1H-cyclopenta[a]phenanthren-17-yl]pentanoyl]-[TyrB5,LysB28],des-(B29-B30)-Insulin [Example 9]",0.49 % of human insulin,0.40 % of human insulin,0.29
"N{Epsilon-B28}-[(4S)-4-carboxy-4-[[(4R)-4-[(3R,10S,13R,17R)-3-hydroxy-10,13-dimethyl-2,3,4,5,6,7,8,9,11,12,14,15,16,17-tetradecahydro-1H-cyclopenta[a]phenanthren-17-yl]pentanoyl]amino]butanoyl]-[TyrB5,LysB28],des-(B29-B30)-Insulin [Example 8]",0.72 % of human insulin,1.76 % of human insulin,0.32
